Measurements taken from the NIST ThermoML archive (doi:10.1021/je060271a).

Details: 343.15 K, Liquid, Vibrating tube method

CCCCCC(=O)OCC(COC(=O)CCCCC)(COC(=O)CCCCC)COC(=O)CCCCC [pentaerythritol tetrahexanoate]
Details | mass density [kg/m3]
21939 kPa | 973
21970 kPa | 972.9
21994 kPa | 973
22600 kPa | 973.4
22626 kPa | 973.4
22658 kPa | 973.4
22686 kPa | 973.3
22712 kPa | 973.5
22744 kPa | 973.6
22771 kPa | 973.5
22798 kPa | 973.5
22831 kPa | 973.5
22858 kPa | 973.7
22886 kPa | 973.6
22919 kPa | 973.6
22946 kPa | 973.6
22973 kPa | 973.7
23356 kPa | 974
23808 kPa | 974.2
23832 kPa | 974.2
23863 kPa | 974.2
23889 kPa | 974.2
24332 kPa | 974.5
24359 kPa | 974.5
24391 kPa | 974.4
24418 kPa | 974.6
24449 kPa | 974.6
24476 kPa | 974.6
24504 kPa | 974.6
24536 kPa | 974.6
24563 kPa | 974.7
24590 kPa | 974.6
24623 kPa | 974.7
24651 kPa | 974.6
24678 kPa | 974.6
24711 kPa | 974.8
24738 kPa | 974.7
24766 kPa | 974.8
24799 kPa | 974.9
24827 kPa | 974.8
24855 kPa | 974.9
24888 kPa | 974.9
24917 kPa | 975
24945 kPa | 974.9
24979 kPa | 974.9
25008 kPa | 974.9
25036 kPa | 975
25070 kPa | 975
25099 kPa | 975.2
25128 kPa | 975
25162 kPa | 975.1
25191 kPa | 975.2
25220 kPa | 975.2
25249 kPa | 975.1
25284 kPa | 975.1
25313 kPa | 975.2
25349 kPa | 975.2
25379 kPa | 975.3
25408 kPa | 975.2
25438 kPa | 975.4
25473 kPa | 975.3
25502 kPa | 975.2
25532 kPa | 975.2
25562 kPa | 975.2
25598 kPa | 975.4
25628 kPa | 975.4
25657 kPa | 975.4
25693 kPa | 975.4
25724 kPa | 975.5
26078 kPa | 975.6
26108 kPa | 975.7
26134 kPa | 975.6
26161 kPa | 975.8
26188 kPa | 975.7
26213 kPa | 975.8
26245 kPa | 975.8
26271 kPa | 975.7
26298 kPa | 975.9
26330 kPa | 975.7
26356 kPa | 975.9
26387 kPa | 976
26413 kPa | 975.9
26439 kPa | 976
26471 kPa | 975.9
26498 kPa | 975.9
26524 kPa | 976
26552 kPa | 975.9
26585 kPa | 976
26612 kPa | 976.1
26644 kPa | 976
26671 kPa | 976.1
26873 kPa | 976.3
26906 kPa | 976.2
26934 kPa | 976.2
26962 kPa | 976.3
26990 kPa | 976.1
27023 kPa | 976.3
27051 kPa | 976.1
27079 kPa | 976.3
27113 kPa | 976.4
27141 kPa | 976.3
27174 kPa | 976.3
27202 kPa | 976.4
27230 kPa | 976.3
27264 kPa | 976.5
27293 kPa | 976.4
27322 kPa | 976.5
27351 kPa | 976.4
27385 kPa | 976.5
27414 kPa | 976.6
27449 kPa | 976.6
27478 kPa | 976.5
27508 kPa | 976.5
27537 kPa | 976.6
27572 kPa | 976.6
28317 kPa | 977.1
28347 kPa | 977.2
28372 kPa | 977.1
28396 kPa | 977.2
28427 kPa | 977.3
28453 kPa | 977.2
28479 kPa | 977.2
28503 kPa | 977.2
28528 kPa | 977.2
28558 kPa | 977.3
28583 kPa | 977.4
29079 kPa | 977.5
29105 kPa | 977.6
29132 kPa | 977.6
29164 kPa | 977.6
29190 kPa | 977.6
29216 kPa | 977.6
29248 kPa | 977.7
29274 kPa | 977.7
29301 kPa | 977.7
29333 kPa | 977.8
29446 kPa | 977.9
29473 kPa | 977.8
29506 kPa | 977.8
29763 kPa | 978.1
29796 kPa | 978.2
29852 kPa | 978.1
29886 kPa | 978.2
29914 kPa | 978.1
